# Data: USRE38792E1, “Modified bacterial cellulose” (Ajinomoto Co., Ltd., priority 1996, dated 2005)
# Tests used:
# [1] = test system: Acetobacter pasteurianus FERM BP-4176; assay: Shape/length of cellulose-producing bacterium by optical microscope; assay type: cell-based
# Procedure: (§1) Seed culture was carried out by placing 20 ml of the above culture medium in a 100 ml flask with baffle, inoculating Acetobacter pasteurianus FERM BP-4176, and then culturing at 25° C. for 3 days with stirring at 200 rpm. The culture medium was crushed by a blender, and added to a main culture medium having the above composition in a concentration of 2% seed culture.
# (§2) The main culture was carried out by static culture at 25° C. During the culture, culture solution and bacterial cellulose were withdrawn, and the morphology of bacteria was observed by an optical microscope, an electron microscope and an atomic force microscope.
# (§3) Six main culture media were used, and nalidixic acid (NA) was added thereto in a concentration of 0.01 mM, 0.05 mM, 0.1 mM, 0.2 mM or 1.0 mM except one medium to which NA was not added.
# (§4) Acetobacter pasteurianus FERM BP-4176 was cultured in static culture, and the culture solution and bacterial cellulose were withdrawn, and the shape of bacteria was observed by the optical microscope, the electron microscope and the atomic force microscope, similar to Example 1, except that chloramphenicol was used instead of nalidixic acid.
# That is, six main culture media having the aforementioned composition were used, and chloramphenicol (CP) was added thereto in a concentration of 0.1 mM, 0.2 mM, 0.3 mM, 0.5 mM or 1.0 mM except one medium to which CP was not added.
# as §4, with “form” for “shape”
# That is, four main culture media having the aforementioned composition were used, and dithiothreitol (DTT) was added thereto in a concentration of 0.5 mM, 1.0 mM or 2.0 mM except one medium to which DTT was not added.
# as §4, with “in agitation culture at 180 rpm instead of” for “in”, “electro” for “electron”, “1.” for “1, except that chloramphenicol was used instead of nalidixic acid.”
# That is, […] main culture media having the aforementioned composition were used, and nalidixic acid (NA) was added thereto in a concentration of 0.10 mM, or 0.20 mM, except one medium to which NA was not added.
# [2] = test system: Acetobacter pasteurianus FERM BP-4176; assay: Production of bacterial cellulose in static culture; assay type: cell-based; settings: NA 0.01 to 1.0 mM
# Procedure: The culture medium used was composed of 50.0 g/l sucrose, 5.0 g/l “Total Amino Acid” (Ajinomoto Co., Inc.), 0.2 g/l phytic acid, 2.4 g/l magnesium sulfate and 1.0 g/l ammonium sulfate (pH 5.0).
# as §1, §2, §3
SMILES,"length of the bacterium as fraction of the bacteria cultured in no DTT medium ([1]; 1.0 mM DTT, static culture 2 days)",change of length of the cellulose-producing bacterium with increasing concentration ([1]; static culture),"length of the cellulose-producing bacterium, up to, relative to bacteria cultured in no CP medium ([1]; CP 0.1 to 1.0 mM, static culture)","lengthening of bacterium compared with no addition of NA ([1]; 0.1 mM NA, static culture 2 days)","change of length of the cellulose-producing bacteria ([1]; agitation culture 180 rpm, 0.10 or 0.20 mM NA)",production of bacterial cellulose with increasing NA concentration [2]
"O[C@H](CS)[C@H](O)CS (racemic) [DTT, dithiothreitol]",⅓ to ½,decreased,–,–,–,–
"O=C(N[C@H](CO)[C@H](O)c1ccc([N+](=O)[O-])cc1)C(Cl)Cl [CP, chloramphenicol]",–,increased,8 to 12 times,–,–,–
"CCn1cc(C(=O)O)c(=O)c2ccc(C)nc21 [NA, nalidixic acid]",–,–,–,2 to 4 times,increased,inhibited
